Measured values: paper PMC8291071, “Tertiary sulphonamide derivatives as dual acting small molecules that inhibit LSD1 and suppress tubulin polymerisation against liver cancer” (Journal of Enzyme Inhibition and Medicinal Chemistry, 2021)
“Also recorded” adds a separate entry of the source.

Legend:
HepG-2 = assay: MTT antiproliferative assay, HepG-2 cells; assay type: cell-based; settings: for IC50: Homo sapiens, HepG2, 48 h, MTT
Procedure: (§1) Cell lines were purchased from Servicebio (Wuhan, China) and cultured in RPMI1640 (Servicebio, Wuhan, China) with 10% foetal bovine serum and 1% antibiotic agent (Servicebio, Wuhan, China) at 37 °C. With the treatment of synthetic compounds, cells were cultured for 48 h and added with MTT solution (Servicebio, Wuhan, China). After 4 h, medium was removed and DMSO was added to culture for 30 min. Finally, the absorbance value was obtained by a microplate reader (Multiskan Sky, Thermo Fisher, Shanghai, China).
(§2) In order to discover the potent anti-liver cancer agents, all tertiary sulphonamide analogues were evaluated for their anticancer activity in vitro against liver cancer cell lines ([…], HepG-2 and Bel-7402). Cell lines were treat with different tertiary sulphonamide derivatives 16 and 17a∼17f for 48 h to obtain IC50 values. In this work, 5-fluorouracil as an well-known antitumor drug was selected as the control agent.

Bel-7402 = assay: MTT antiproliferative assay, Bel-7402 cells; assay type: cell-based; settings: Homo sapiens, 48 h
Procedure: as §1, §2

SNU-475 = assay: MTT antiproliferative assay, SNU-475 cells; assay type: cell-based; settings: Homo sapiens, 48 h
[1] = test system: heart, liver, spleen, lung and kidney; assay: Haematoxylin & eosin staining of organs of treated mice; settings: 60 mg/kg, intragastric, 21 days, H&E staining
Procedure: (§4) Xenograft models using Bel-7402 cells was established in nude mice (Jiangsu ALF Biotechnology Co., LTD, Jiangsu, China). Then, mice-bearing tumours were divided into two groups (vehicle and 60 mg/kg group). […] Tumour volume and tumour weight of treated mice were measured.
(§5) Xenograft tumours were produced by the subcutaneous implantation of liver cancer Bel-7402 cells.

Bel-7402 cells = assay: Transwell migration assay; assay type: cell-based; settings: 48 h
Procedure: Liver cancer Bel-7402 cells were cultured in the upper chambers of a Transwell 24-well plate (Servicebio, Wuhan, China) for 24 h. 1% FBS and 20% FBS were added into the upper chambers and lower chambers respectively. […] Then, all medium was removed and Bel-7402 cells were fixed with ethanol for 30 min. Finally, Bel-7402 cells from the upper chambers were stained with haematoxylin solution (Servicebio, Wuhan, China) for 30 min.
(§3) LSD1 could specifically demethylate mono- and dimethyl-lysine on histone H3 H3K9me1/2), leading to the transcriptional repression or activation of target genes. Thus, the expression levels of H3K9me1/2 in liver cancer Bel-7402 cells were explored with the treatment of 17a. […] The migration effects of tertiary sulphonamide derivative 17a were also investigated.

Bel-7402 xenograft = Bel-7402 xenograft antitumour study; settings: 60 mg/kg, intragastric administration, 21 days
Procedure: as §4, §5

[2] = test system: interphase microtubules in Bel-7402 cells; assay: Immunofluorescence of interphase microtubules in Bel-7402 cells; assay type: cell-based; settings: 50 nM
Procedure: Liver cancer Bel-7402 cells were cultured on the slices for 24 h and treated with tertiary sulphonamide derivatives for 48 h. Then, Bel-7402 cells were fixed by 4% paraformaldehyde solution (Shanghai Yuanye Bio-Technology Co., Ltd, Shanghai, China) for 30 min. Bovine albumin was used to block the system for 30 min. Bel-7402 cells were cultured with β-tubulin and incubated for 24 h at 4 °C. Finally, 4′,6-diamidino-2-phenylindole (DAPI) was added in a dark room to obtain images of immunostaining (Confocal laser scanning microscope, FV3000RS, Beijing, China).

[3] = test system: H3K9me1/2 in Bel-7402 cells; assay: Western blot of H3K9me1 and H3K9me2 in Bel-7402 cells; assay type: cell-based; settings: 48 h
Procedure: Liver cancer Bel-7402 cells were cultured for 24 h and treated with tertiary sulphonamide derivative 17a for 48 h at 37 °C. Protein lysates were harvested from the treated Bel-7402 cells. Nitrocellulose membrane was used to perform polyacrylamide gelelectrophoresis. H3K9me1 and H3K9me2 (Servicebio, Wuhan, China) were treated with the nitrocellulose membrane at 4 °C for 12 h. GAPDH as the secondary antibody was incubated for 1 h at room temperature (Shanghai Yuanye Bio-Technology Co., Ltd, Shanghai, China).
as §3

Bel-7402&shControl cells = assay: Cell viability of control Bel-7402 cells; assay type: cell-based
L-02 cells = assay: Cytotoxicity against normal liver cell line L-02; assay type: cell-based
Procedure: as §1

tubulin = assay: Inhibitory activity of tubulin polymerisation in vitro; assay type: biochemical; settings: fluorescence intensity
LSD1 = LSD1 (Homo sapiens, UniProt O60341); assay: LSD1 enzymatic assay; settings: for inhibition at 0.2 µM: read-out: inhibitory rate against LSD1

| Compound | IC50 (HepG-2) | IC50 (Bel-7402) | IC50 (SNU-475) | melting point | toxicity of organs (heart, liver, spleen, lung and kidney) [1] | migration of Bel-7402 cells (Bel-7402 cells) | reduction of tumour weight (Bel-7402 xenograft) | tumour growth (Bel-7402 xenograft) | depolymerisation of interphase microtubules [2] | expression levels of H3K9me1 and H3K9me2 [3] | cell viability of Bel-7402&shControl cells (Bel-7402&shControl cells) | cytotoxicity against L-02 cells (L-02 cells) | fold activity increase against HepG-2 cells (HepG-2; 17b VS. 17c) | IC50 (tubulin) | IC50 (LSD1) | fold activity loss against LSD1 (LSD1; methyl group replaced with acetyl group (17d VS. 17f as printed)) | inhibition at 0.2 µM (LSD1) |
| --- | --- | --- | --- | --- | --- | --- | --- | --- | --- | --- | --- | --- | --- | --- | --- | --- | --- |
| O=c1[nH]cc(F)c(=O)[nH]1 [5-Fluorouracil, reference compound] | 12.2 ± 0.68 µM | 15.1 ± 1.28 µM | 26.47 ± 0.16 µM | – | – | – | – | – | – | – | – | – | – | – | – | – | – |
| COc1ccc(S(=O)(=O)N(CCBr)c2cc(OC)c(OC)c(OC)c2)cc1 [Compound 16, N-(2-bromoethyl)-4-methoxy-N-(3,4,5-trimethoxyphenyl)benzenesulfonamide] | > 20 µM | > 20 µM | > 20 µM | 116 to 118 °C | – | – | – | – | – | – | – | – | – | – | – | – | – |
| COc1ccc(S(=O)(=O)N(CCSC(=S)N2CCN(C)CC2)c2cc(OC)c(OC)c(OC)c2)cc1 [Compound 17a, 2-((4-Methoxy-N-(3,4,5-trimethoxyphenyl)phenyl)sulfonamido)ethyl-4-methylpiperazine-1-carbodithioate] | 0.57 ± 0.07 µM | 0.32 ± 0.08 µM | 0.73 ± 0.16 µM | – | no apparent toxicity of organs | concentration-dependently inhibited migration; also recorded: significantly inhibited the migration | 42.97% | effectively inhibited the tumour growth in vivo | more pronounced depolymerisation effects | increased the expression levels of H3K9me1 and H3K9me2 | potently inhibited the cell viability | > 64 µM | – | – | – | – | – |
| CCN1CCN(C(=S)SCCN(c2cc(OC)c(OC)c(OC)c2)S(=O)(=O)c2ccc(OC)cc2)CC1 [Compound 17b, 2-((4-Methoxy-N-(3,4,5-trimethoxyphenyl)phenyl)sulfonamido)ethyl-4-ethylpiperazine-1-carbodithioate] | 1.03 ± 0.28 µM | 1.37 ± 0.16 µM | 2.35 ± 0.7 µM | 150 to 152 °C | – | – | – | – | more pronounced depolymerisation effects | – | – | > 64 µM | over 8 fold | 2.13 µM | 0.127 µM | – | – |
| COc1ccc(S(=O)(=O)N(CCSC(=S)N2CCN(CCO)CC2)c2cc(OC)c(OC)c(OC)c2)cc1 [Compound 17c, 2-((4-Methoxy-N-(3,4,5-trimethoxyphenyl)phenyl)sulfonamido)ethyl-4–(2-hydroxyethyl)piperazine-1-carbodithioate] | 9.17 ± 2.18 µM | 7.09 ± 1.33 µM | 10.8 ± 1.01 µM | 146 to 148 °C | – | – | – | – | – | – | – | – | – | – | – | – | – |
| COc1ccc(S(=O)(=O)N(CCSC(=S)N2CCN(C(C)=O)CC2)c2cc(OC)c(OC)c(OC)c2)cc1 [Compound 17d, 2-((4-Methoxy-N-(3,4,5-trimethoxyphenyl)phenyl)sulfonamido)ethyl-4-acetylpiperazine-1-carbodithioate] | 3.29 ± 0.84 µM | 1.58 ± 1.02 µM | 5.06 ± 0.68 µM | 152 to 154 °C | – | – | – | – | – | – | – | – | – | 1.78 µM | > 0.2 µM | over 3 fold | 46% |
| COc1ccc(S(=O)(=O)N(CCSC(=S)N2CCN(c3ccc(F)cc3)CC2)c2cc(OC)c(OC)c(OC)c2)cc1 [Compound 17e, 2-((4-Methoxy-N-(3,4,5-trimethoxyphenyl)phenyl)sulfonamido)ethyl-4–(4-fluorophenyl)piperazine-1-carbodithioate] | 7.57 ± 0.96 µM | 9.18 ± 1.32 µM | 6.17 ± 1.05 µM | 166 to 168 °C | – | – | – | – | – | – | – | – | – | – | – | – | – |
| COc1ccc(S(=O)(=O)N(CCSC(=S)N2CCN(C(=O)OC(C)(C)C)CC2)c2cc(OC)c(OC)c(OC)c2)cc1 [Compound 17f, Tert-butyl-4-(((2-((4-methoxy-N-(3,4,5-trimethoxyphenyl)phenyl)sulfonamido)ethyl)thio)carbonothioyl)piperazine-1-carboxylate] | 6.67 ± 1.25 µM | 2.32 ± 1.63 µM | 4.46 ± 1.38 µM | 162 to 164 °C | – | – | – | – | moderately depolymerised interphase microtubules | – | – | – | – | 3.07 µM | > 0.2 µM | – | 35.7% |
